In US10450347B2, “Immunomodulators” (BRISTOL-MYERS SQUIBB COMPANY, priority 2015, dated 2019) one finds IC50 and bioavailability data, which are given here for twelve compounds.

Starred links: 1 amine or outer side, 2 acyl side, 3 side chain; linkers in the order of their positions; H or OH if unused. Positions of bridges follow the written chain, without caps; N, C: chain ends. Non-standard residues stand in square brackets, D forms with d. Residues, ends and D or L forms follow the SMILES beside them. Tyrψ(CN4)Ala = C[C@@H](C(=O)[*:2])n1nnnc1[C@H](Cc1ccc(O)cc1)N[*:1]; X2 = O=C(Cn1nnnc1C1(N[*:1])CCCCC1)[*:2]; Bta = N[C@@H](Cc1csc2ccccc12)C(=O)O; Hyp = O=C(O)[C@@H]1C[C@@H](O)CN1; NMeF = CN[C@@H](Cc1ccccc1)C(=O)O; NMeNle = CCCC[C@H](NC)C(=O)O; Sar = CNCC(=O)O

The target in one series is T1, PD-1-Ig/PD-L1-His (Homo sapiens, UniProt Q9NZQ7).
T1 construct: [hPD-L1(19-239)-tobacco vein mottling virus protease cleavage site (TVMV)-His]; made in house; host or cells: HEK293T cells
T1 sequence (Q9NZQ7 with tags, fused parts or gaps): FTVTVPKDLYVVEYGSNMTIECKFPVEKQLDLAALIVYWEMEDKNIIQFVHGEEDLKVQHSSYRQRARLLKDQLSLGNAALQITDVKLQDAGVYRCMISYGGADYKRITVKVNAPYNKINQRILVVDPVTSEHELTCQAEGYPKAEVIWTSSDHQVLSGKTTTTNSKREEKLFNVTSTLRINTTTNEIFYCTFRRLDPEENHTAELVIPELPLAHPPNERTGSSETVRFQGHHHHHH
Nature of the series: PD-1/PD-L1 Homogenous Time-Resolved Fluorescence (HTRF) binding assay. To be noted: inhibition of PD-1-Ig binding to PD-L1-TVMV-His. From the text: The ability of the macrocyclic peptides of the present disclosure to bind to PD-L1 was investigated using a PD-1/PD-L1 Homogenous Time-Resolved Fluorescence (HTRF) binding assay.
Homogenous Time-Resolved Fluorescence (HTRF) Assays of Binding of Soluble PD-1 to Soluble PD-L1. Soluble PD-1 and soluble PD-L1 refers to proteins with carboxyl-end truncations that remove the transmembrane-spanning regions and are fused to heterologous sequences, specifically the Fc portion of the human immunoglobuling G sequence (Ig) or the hexahistidine epitope tag (SEQ ID NO: 3) (His). All binding studies were performed in an HTRF assay buffer consisting of dPBS supplemented with 0.1% (w/v) bovine serum albumin and 0.05% (v/v) Tween-20. For the PD-1-Ig/PD-L1-His binding assay, inhibitors were pre-incubated with PD-L1-His (10 nM final) for 15 m in 4 μl of assay buffer, followed by addition of PD-1-Ig (20 nM final) in 1 μl of assay buffer and further incubation for 15 m. PD-L1 fusion proteins from either human, cynomologous macaques, mouse, or other species were used. HTRF detection was achieved using europium crypate-labeled anti-Ig monoclonal antibody (1 nM final) and allophycocyanin (APC) labeled anti-His monoclonal antibody (20 nM final). Antibodies were diluted in HTRF detection buffer and 5 μl was dispensed on top of binding reaction. The reaction was allowed to equilibrate for 30 minutes and signal (665 nm/620 nm ratio) was obtained using an EnVision fluorometer. Additional binding assays were established between PD-1-Ig/PD-L2-His (20 and 5 nM, respectively), CD80-His/PD-L1-Ig (100 and 10 nM, respectively) and CD80-His/CTLA4-Ig (10 and 5 nM, respectively). Binding/competition studies between biotinylated Compound No. 71 and human PD-L1-His were performed as follows. Macrocyclic peptide inhibitors were pre-incubated with PD-L1-His (10 nM final) for 60 minutes in 4 μl of assay buffer followed by addition of biotinylated Compound No. 71 (0.5 nM final) in 1 μl of assay buffer. Binding was allowed to equilibrate for 30 minutes followed by addition of europium crypated labeled Streptavidin (2.5 pM final) and APC-labeled anti-His (20 nM final) in 5 μl of HTRF buffer. The reaction was allowed to equilibrate for 30 m and signal (665 nm/620 nm ratio) was obtained using an EnVision fluorometer.
Recombinant Proteins. Carboxyl-truncated human PD-1 (amino acids 25-167) with a C-terminal human Ig epitope tag [hPD-1 (25-167)-3S-IG] and human PD-L1 (amino acids 18-239) with a C-terminal His epitope tag [hPD-L1(19-239)-tobacco vein mottling virus protease cleavage site (TVMV)-His] were expressed in HEK293T cells and purified sequentially by recombinant Protein A affinity chromatography and size exclusion chromatography. Human PD-L2-His (Sino Biologicals), CD80-His (Sino Biologicals), CTLA4-Ig (RnD Systems) were all obtained through commercial sources.

For series [1] the following is noted: oral administration, extensive first-pass metabolism in the liver; cited from earlier work.

`CCCC[C@H]1C(=O)N[C@@H](C)C(=O)N[C@H](C(=O)NCC(N)=O)CSCC(=O)N[C@@H](Cc2ccc(O)cc2)C(=O)N(C)[C@@H](C)C(=O)N[C@@H](CC(=O)O)C(=O)N2CCC[C@H]2C(=O)N[C@@H](Cc2cnc[nH]2)C(=O)N[C@@H](CCC(N)=O)C(=O)N2C[C@H](O)C[C@H]2C(=O)N[C@@H](Cc2c[nH]c3ccccc23)C(=O)N[C@@H](CO)C(=O)N[C@@H](Cc2cccc3ccccc23)c2nnnn2[C@@H](CCCC)C(=O)N1C` [Example 1103] registered an IC50 on PD-1-Ig/PD-L1-His (range classes) of 0.1 to 10 µM.

Take `CCCC[C@H]1C(=O)N[C@@H](CCC(=O)O)C(=O)N[C@H](C(=O)NCC(N)=O)CSCC(=O)N[C@@H](Cc2ccc(O)cc2)C(=O)N(C)[C@@H](C)C(=O)N[C@@H](CC(=O)O)C(=O)N2CCC[C@H]2C(=O)N[C@@H](Cc2cnc[nH]2)C(=O)N[C@@H](CCC(N)=O)C(=O)N2C[C@H](O)C[C@H]2C(=O)N[C@@H](Cc2c[nH]c3ccccc23)C(=O)N[C@@H](CO)C(=O)N[C@@H](Cc2cccc3ccccc23)c2nnnn2[C@@H](CCCC)C(=O)N1C` [Example 1104]: the concentration for half-maximal inhibition (IC50) at PD-1-Ig/PD-L1-His (range classes) lay within 0.01 to 0.099 µM.

`CCCC[C@H]1C(=O)N(C)[C@@H](CCCC)C(=O)N[C@@H](C)C(=O)N[C@H](C(=O)NCC(N)=O)CSCC(=O)N[C@@H](Cc2ccc(O)cc2)c2nnnn2[C@@H](C)C(=O)N[C@@H](CC(=O)O)C(=O)N2CCC[C@H]2C(=O)N[C@@H](Cc2c[nH]cn2)C(=O)N[C@@H](CCC(N)=O)C(=O)N2C[C@H](O)C[C@H]2C(=O)N[C@@H](Cc2c[nH]c3ccccc23)C(=O)N[C@@H](CO)C(=O)N[C@@H](Cc2csc3ccccc23)C(=O)N1C` [Example 1105] ({CH2CO}-[Tyrψ(CN4)Ala]DPHQ[Hyp]WS[Bta][NMeNle][NMeNle]ACG-NH2; thioether N-13) came in with an IC50 on PD-1-Ig/PD-L1-His (range classes) of 0.1 to 10 µM.

On PD-1-Ig/PD-L1-His (range classes), `CCCC[C@H]1C(=O)N(C)[C@@H](CCCC)C(=O)N[C@@H](CCC(=O)O)C(=O)N[C@H](C(=O)NCC(N)=O)CSCC(=O)N[C@@H](Cc2ccc(O)cc2)c2nnnn2[C@@H](C)C(=O)N[C@@H](CC(=O)O)C(=O)N2CCC[C@H]2C(=O)N[C@@H](Cc2c[nH]cn2)C(=O)N[C@@H](CCC(N)=O)C(=O)N2C[C@H](O)C[C@H]2C(=O)N[C@@H](Cc2c[nH]c3ccccc23)C(=O)N[C@@H](CO)C(=O)N[C@@H](Cc2csc3ccccc23)C(=O)N1C` [Example 1106] ({CH2CO}-[Tyrψ(CN4)Ala]DPHQ[Hyp]WS[Bta][NMeNle][NMeNle]ECG-NH2; thioether N-13) returned an IC50 of 0.1 to 10 µM.

On PD-1-Ig/PD-L1-His (range classes), `CCCC[C@H]1C(=O)N[C@@H](CN)C(=O)N[C@H](C(=O)NCC(N)=O)CSCC(=O)N[C@@H](Cc2ccc(O)cc2)C(=O)N(C)[C@@H](C)C(=O)N[C@@H](CC(=O)O)C(=O)N2CCC[C@H]2C(=O)N[C@@H](Cc2cnc[nH]2)C(=O)N[C@@H](CCC(N)=O)C(=O)N2C[C@H](O)C[C@H]2C(=O)N[C@@H](Cc2c[nH]c3ccccc23)C(=O)N[C@@H](CO)C(=O)N[C@@H](Cc2cccc3ccccc23)c2nnnn2[C@@H](CCCC)C(=O)N1C` [Example 1107] displayed a half-inhibitory concentration (IC50) of 0.1 to 10 µM.

As for `CCCC[C@H]1C(=O)N[C@@H](CN)C(=O)N[C@H](C(=O)NCC(N)=O)CSCC(=O)N[C@@H](Cc2ccc(O)cc2)C(=O)N(C)[C@@H](C)C(=O)N[C@@H](CC(=O)O)C(=O)N2CCC[C@H]2C(=O)N[C@@H](Cc2c[nH]cn2)C(=O)N[C@@H](CCC(=O)O)C(=O)N2C[C@H](O)C[C@H]2C(=O)N[C@@H](Cc2c[nH]c3ccccc23)C(=O)N[C@@H](CO)C(=O)N[C@@H](Cc2cccc3ccccc23)c2nnnn2[C@@H](CCCC)C(=O)N1C` [Example 1108], at PD-1-Ig/PD-L1-His (range classes), the half-inhibitory concentration (IC50) is 0.1 to 10 µM.

On PD-1-Ig/PD-L1-His (range classes), `CCCC[C@H]1C(=O)N[C@@H](CN)C(=O)N[C@H](C(=O)NCC(N)=O)CSCC(=O)N[C@@H](Cc2ccc(O)cc2)C(=O)N(C)[C@@H](C)C(=O)N[C@@H](CC(=O)O)C(=O)N2CCC[C@H]2C(=O)N[C@@H](CN)C(=O)N[C@@H](CCC(=O)O)C(=O)N2C[C@H](O)C[C@H]2C(=O)N[C@@H](Cc2c[nH]c3ccccc23)C(=O)N[C@@H](CO)C(=O)N[C@@H](Cc2cccc3ccccc23)c2nnnn2[C@@H](CCCC)C(=O)N1C` [Example 1109] registered a 50% inhibitory concentration (IC50) of 0.01 to 0.099 µM.

The compound `CCCC[C@H]1C(=O)N(C)[C@@H](CCCC)C(=O)N[C@@H](C)C(=O)N[C@H](C(=O)NCC(=O)O)CSCC(=O)N[C@@H](Cc2ccc(O)cc2)c2nnnn2[C@@H](C)C(=O)N[C@@H](CC(=O)O)C(=O)N2CCC[C@H]2C(=O)N[C@@H](Cc2c[nH]cn2)C(=O)N[C@@H](CCC(N)=O)C(=O)N2C[C@H](O)C[C@H]2C(=O)N[C@@H](Cc2c[nH]c3ccccc23)C(=O)N[C@@H](CO)C(=O)N[C@@H](Cc2csc3ccccc23)C(=O)N1C` [Example 1110] ({CH2CO}-[Tyrψ(CN4)Ala]DPHQ[Hyp]WS[Bta][NMeNle][NMeNle]ACG-OH; thioether N-13) had an IC50 at PD-1-Ig/PD-L1-His (range classes) of 0.1 to 10 µM.

`CCCC[C@H]1C(=O)N[C@@H](CN)C(=O)N[C@H](C(=O)NCC(N)=O)CSCC(=O)N[C@@H](Cc2ccc(O)cc2)C(=O)N[C@H](C)C(=O)N[C@@H](CC(=O)O)C(=O)N2CCC[C@H]2C(=O)N[C@@H](Cc2cnc[nH]2)C(=O)N[C@@H](CCC(N)=O)C(=O)N2C[C@H](O)C[C@H]2C(=O)N[C@@H](Cc2c[nH]c3ccccc23)C(=O)N[C@@H](CO)C(=O)N[C@@H](Cc2cccc3ccccc23)c2nnnn2[C@@H](CCCC)C(=O)N1C` [Example 1111] returned an IC50 on PD-1-Ig/PD-L1-His (numeric values) of 2.16 µM.

At PD-1-Ig/PD-L1-His (range classes), `CCCC[C@H]1C(=O)N[C@@H](C)C(=O)N[C@H](C(=O)NCC(N)=O)CSCC(=O)N[C@@H](Cc2ccc(O)cc2)C(=O)N[C@H](C)C(=O)N[C@@H](CC(=O)O)C(=O)N2CCC[C@H]2C(=O)N[C@@H](Cc2cnc[nH]2)C(=O)N[C@@H](CCC(N)=O)C(=O)N2C[C@H](O)C[C@H]2C(=O)N[C@@H](Cc2c[nH]c3ccccc23)C(=O)N[C@@H](CO)C(=O)N[C@@H](Cc2cccc3ccccc23)c2nnnn2[C@@H](CCCC)C(=O)N1C` [Example 1113] gave an IC50 of 0.1 to 10 µM.

For `CCCC[C@H]1C(=O)N(C)CC(=O)N[C@@H](CC(=O)O)C(=O)N[C@@H](C(C)C)C(=O)N(C)[C@@H](Cc2ccccc2)C(=O)NC2(CCCCC2)c2nnnn2CC(=O)N[C@@H](Cc2c[nH]c3ccccc23)C(=O)N[C@@H](Cc2ccc(O)cc2)C(=O)N[C@@H](CC(C)C)C(=O)N[C@H](C(=O)NCC(N)=O)CSCC(=O)N[C@@H](Cc2ccccc2)C(=O)N(C)[C@@H](Cc2ccccc2)C(=O)N1C` [Example 3003] ({CH2CO}-F[NMeF][NMeNle][Sar]DV[NMeF][X2]WYLCG-NH2; thioether N-12), on PD-1-Ig/PD-L1-His (numeric values), the IC50 worked out at 0.59 µM.

Take `CCCC1O[C@@H]2C[C@H]3[C@@H]4CCC5=CC(=O)C=C[C@]5(C)[C@H]4[C@@H](O)C[C@]3(C)[C@]2(C(=O)CO)O1` (stereo partly drawn) [budesonide]: the bioavailability result in series [1] is “about 10%”.
